SMILES strings stand for the structures. Structures can show the parent of a compound that is named as a salt. Where two headings read alike, the source gives them in different places. Where only a bound is given, the exact number is not on record here.

Data set [1] deals with T1, human 5-HT6 receptor (Homo sapiens, UniProt P50406).
T1 construct: host or cells: CHO-K1 cells, stably transfected; membranes prepared in house
Put plainly: Human 5-HT6 Receptor Binding Assay ([3H]LSD displacement, scintillation beads). As to conditions: membranes of CHO-K1 cells with recombinant human 5-HT6, 4 nM [3H]LSD, read-out: h5-HT6 (Ki).

T1 sequence (P50406 whole entry): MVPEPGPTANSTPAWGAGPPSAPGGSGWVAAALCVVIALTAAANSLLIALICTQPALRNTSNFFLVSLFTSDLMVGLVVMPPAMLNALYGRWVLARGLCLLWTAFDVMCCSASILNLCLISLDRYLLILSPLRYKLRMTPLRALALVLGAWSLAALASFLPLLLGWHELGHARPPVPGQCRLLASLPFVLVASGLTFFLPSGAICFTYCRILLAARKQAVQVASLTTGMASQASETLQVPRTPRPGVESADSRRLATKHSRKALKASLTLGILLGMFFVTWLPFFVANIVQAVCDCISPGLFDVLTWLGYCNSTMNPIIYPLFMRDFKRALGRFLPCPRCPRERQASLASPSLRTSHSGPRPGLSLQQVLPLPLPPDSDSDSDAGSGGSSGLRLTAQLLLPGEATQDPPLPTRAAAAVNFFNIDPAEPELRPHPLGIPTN

As for `CC12CCNCC1Oc1cc(S(=O)(=O)c3cccc(F)c3F)ccc12` (stereo not drawn) (as salt: HCl) [Example 488], the melting point was in the range of 202 to 204 °C.
Compound `O=S(=O)(c1cccc(OCCn2cccc2)c1)c1ccc2c(c1)OC1CNCCC21` (stereo not drawn) (as salt: HCl) [Example 573] had a melting point of 233 to 234 °C.
Same read-out and setting: to `Cc1cc(COc2cccc(S(=O)(=O)c3ccc4c(c3)OC3CNCCC43)c2)no1` (stereo not drawn) (as salt: HCl) [Example 565] belongs 215 to 217 °C.
Turning to `Cc1nc(COc2cccc(S(=O)(=O)c3ccc4c(c3)OC3CNCCC43)c2)cs1` (stereo not drawn) (as salt: HCl) [Example 569], the melting point was 205 to 208 °C.
Regarding `CC(C)Oc1cccc(S(=O)(=O)c2ccc3c4c(oc3c2)C2(CCC2)NCC4)c1` (as salt: HCl) [Example 26, 7-{[3-(propan-2-yloxy)phenyl]sulfonyl}-3,4-dihydro-2H-spiro[1-benzofuro[2,3-c]pyridine-1,1′-cyclobutane]], the melting point was > 200 °C (dec.).
On to `O=S(=O)(c1cccc(OCC2CCCCO2)c1)c1ccc2c(c1)OC1CNCCC21` (stereo not drawn) (as salt: HCl) [Example 553], for which the melting point lay in the range of 192 to 194 °C.
The same measure, in the same setting: to `O=S(=O)(c1cccc(Oc2ccccn2)c1)c1ccc2c(c1)OC1CNCCC21` (stereo not drawn) (as salt: HCl) [Example 579] belongs 198 to 203 °C.
The same measure, in the same setting: for `O=S(=O)(c1ccc2c3c(oc2c1)C1(CCOCC1)NCC3)c1cccc(F)c1F` (as salt: HCl) [Example 475] the value was 250 to 265 °C.
The same measure, in the same setting: to `CC1(C)NCCc2c1oc1cc(S(=O)(=O)c3cccc(Cl)c3)ccc21` (as salt: HCl) [Example 17, 7-[(3-chlorophenyl)sulfonyl]-1,1-dimethyl-1,2,3,4-tetrahydro[1]benzofuro[2,3-c]pyridine] belongs > 200 °C (dec.); to `O=S(=O)(c1cccc(OCC2CC2)c1)c1ccc2c(c1)OC1CNCCC21` (stereo not drawn) (as salt: HCl) [Example 555], 208 to 210 °C.
As to `CC1OCCC12NCCc1c2oc2cc(S(=O)(=O)c3cccc(F)c3)ccc12` (single isomer, unassigned) (as salt: HCl) [Example 59, 7-[(3-Fluorophenyl)sulfonyl]-2′-methyl-3,4,4′,5′-tetrahydro-2H-spiro[1-benzofuro[2,3-c]pyridine-1,3′-furan]], the melting point fell in the range of 262 to 265 °C.
Still for that read-out and setting: for `CC12CCNCC1Oc1cc(S(=O)(=O)c3ncccn3)ccc12` (racemic) (as salt: HCl) [Example 9, 4a-methyl-7-(pyrimidin-2-ylsulfonyl)-1,2,3,4,4a,9a-hexahydro[1]benzofuro[2,3-c]pyridine] the value was 232 to 234 °C.
Same read-out and setting: to `CC(C)C(=O)NCC1(C)NCCc2c1oc1cc(S(=O)(=O)c3cccc(F)c3)ccc21` (stereo not drawn) (as salt: HCl) [Example 491, N-[7-(3-Fluoro-benzenesulfonyl)-1-methyl-1,2,3,4-tetrahydro-benzofuro[2,3-c]pyridin-1-ylmethyl]-isobutyramide] belongs 220 to 225 °C (dec.).
The same measure, in the same setting: for `Cc1cccc(S(=O)(=O)c2ccc3c(c2)OC2CNCCC32C)n1` (racemic) (as salt: HCl) [Example 6, 4a-methyl-7-[(6-methylpyridin-2-yl)sulfonyl]-1,2,3,4,4a,9a-hexahydro[1]benzofuro[2,3-c]pyridine] the value was 255 to 258 °C.
In turn, `COCC1(COC)NCCc2c1oc1cc(S(=O)(=O)c3cccc(F)c3)ccc21` (as salt: HCl) [Example 39, 7-[(3-fluorophenyl)sulfonyl]-1,1-bis(methoxymethyl)-1,2,3,4-tetrahydro[1]benzofuro[2,3-c]pyridine] gave a melting point of 196 to 198 °C.
Still for that read-out and setting: for `CN(C)C(=O)CC1(C)NCCc2c1oc1cc(S(=O)(=O)c3cccc(F)c3)ccc21` (racemic) (as salt: HCl) [Example 40, 2-{7-[(3-fluorophenyl)sulfonyl]-1-methyl-1,2,3,4-tetrahydro[1]benzofuro[2,3-c]pyridin-1-yl}-N,N-dimethylacetamide] the value was 220 to 223 °C.
In the case of `COCCCOc1cc(OC(C)C)cc(S(=O)(=O)c2ccc3c(c2)OC2CNCCC32)c1` (stereo not drawn) (as salt: HCl) [Example 588], the melting point fell in the range of 164 to 166 °C.
Same read-out and setting: to `CC(C)Oc1cccc(S(=O)(=O)c2ccc3c4c(oc3c2)C(C)(C(F)F)NCC4)c1` (single isomer, unassigned) (as salt: HCl) [Example 34, 1-(difluoromethyl)-1-methyl-7-{[3-(propan-2-yloxy)phenyl]sulfonyl}-1,2,3,4-tetrahydro[1]benzofuro[2,3-c]pyridine] belongs 219 to 222 °C; to `CC12CCNCC1Oc1ccc(S(=O)(=O)c3ccncc3)cc12` (racemic) (as salt: HCl) [Example 13, 4a-methyl-6-(pyridin-4-ylsulfonyl)-1,2,3,4,4a,9a-hexahydro[1]benzofuro[2,3-c]pyridine], 186 to 188 °C.
Consider `Cc1cccc(S(=O)(=O)c2ccc3c4c(oc3c2)CNCC4)n1` [Example 343, 7-[(6-methylpyridin-2-yl)sulfonyl]-1,2,3,4-tetrahydro[1]benzofuro[2,3-c]pyridine], for which the Ki in data set [1] (Table 1, class symbols) is less than 0.5 µM; in data set [1] (specific data), 0.0066 µM.
For the compound `O=S(=O)(Oc1ccc2c(c1)C1CCNCC1O2)c1ccc(C(F)(F)F)cc1` (stereo not drawn) [Example 735], in data set [1] (Table 1, class symbols), the Ki was more than 1 µM.
Still for that read-out and setting: for `CN(C)C(=O)CC1(C)NCCc2c1oc1cc(S(=O)(=O)c3cccc(F)c3)ccc21` (single isomer, unassigned) [Example 50, 2-{7-[(3-fluorophenyl)sulfonyl]-1-methyl-1,2,3,4-tetrahydro[1]benzofuro[2,3-c]pyridin-1-yl}-N,N-dimethylacetamide] the value was less than 0.5 µM; for `Cc1c(Cl)cccc1S(=O)(=O)Oc1ccc2c(c1)C1CCNCC1O2` (stereo not drawn) [Example 717], less than 0.5 µM.
On to `CC1(C2CC2)NCCc2c1oc1cc(S(=O)(=O)c3cccc(F)c3)ccc21` (racemic) [Example 29, 1-cyclopropyl-7-[(3-fluorophenyl)sulfonyl]-1-methyl-1,2,3,4-tetrahydro[1]benzofuro[2,3-c]pyridine], for which the Ki in data set [1] (Table 1, class symbols) was less than 0.5 µM.
With `[O-][S+](c1ccc2c(c1)OC1CNCCC21)c1cc(F)ccc1F` (stereo not drawn) [Example 142], the Ki in data set [1] (Table 1, class symbols) is more than 1 µM.
The same measure, in the same setting: for `O=S(=O)(c1cncc(C(F)(F)F)c1)c1ccc2c(c1)OC1CNCCC21` (stereo not drawn) [Example 459] the value was more than 1 µM; for `O=S(=O)(Oc1ccc2c(c1)C1CCNCC1O2)c1ccc(Cl)cc1` (stereo not drawn) [Example 695], more than 1 µM; for `O=S(=O)(c1ccc2c(c1)OC1CNCCC21)c1cccc2c1OC(F)(F)O2` (stereo not drawn) [Example 469], less than 0.5 µM.
Regarding `CC(C)Oc1cccc([S+]([O-])c2ccc3c4c(oc3c2)CNCC4)c1` (stereo not drawn) [Example 216], in data set [1] (Table 1, class symbols), the inhibitory constant (Ki) was less than 0.5 µM.
Same read-out and setting: for `CC(C)S(=O)(=O)Nc1ccc2c(c1)C1CCNCC1O2` (stereo not drawn) [Example 832] the value was more than 1 µM.
`CC1(C)CNC2(CCOCC2)c2oc3cc([S+]([O-])c4cccc(F)c4)ccc3c21` (racemic) [Example 47, 7-[(3-fluorophenyl)sulfinyl]-4,4-dimethyl-2′,3,3′,4,5′,6′-hexahydro-2H-spiro[1-benzofuro[2,3-c]pyridine-1,4′-pyran]]: the inhibition constant (Ki) in data set [1] (Table 1, class symbols) was less than 0.5 µM.
Consider `O=S(=O)(c1cccc(F)c1)c1ccc2c(c1)C1CCNCC1O2` (stereo not drawn) [Example 168], for which, in data set [1] (Table 1, class symbols), the Ki was in the range of 0.5 to 1 µM.
On the same count and under the same terms, to `O=S(=O)(c1cccc(Cl)c1)c1ccc2c3c(oc2c1)C1(CCOC1)NCC3` (stereo not drawn) [Example 306] belongs less than 0.5 µM.
Still for that read-out and setting: for `Cc1ccncc1S(=O)(=O)c1ccc2c3c(oc2c1)C(C)(C)NCC3` [Example 379] the value was less than 0.5 µM; for `O=S(=O)(c1cccc(F)c1)c1ccc2c(c1)OC1CNCCC21` (stereo not drawn) [Example 117], less than 0.5 µM.
For `Cc1cccc(S(=O)(=O)c2ccc3oc4c(c3c2)CCNC4)n1` [Example 350], the Ki in data set [1] (Table 1, class symbols) was less than 0.5 µM.
In the case of `CC(=O)NCCC1NCCc2c1oc1cc(S(=O)(=O)c3cccc(Cl)c3)ccc21` (racemic) [Example 540, N-(2-{7-[(3-chlorophenyl)sulfonyl]-1,2,3,4-tetrahydro[1]benzofuro[2,3-c]pyridin-1-yl}ethyl)acetamide], the Ki in data set [1] (Table 1, class symbols) was less than 0.5 µM.
The same measure, in the same setting: for `Cc1nc(COc2cccc(S(=O)(=O)c3ccc4c(c3)OC3CNCCC43)c2)cs1` (stereo not drawn) [Example 569] the value was less than 0.5 µM.
For the compound `O=S(=O)(c1cccc(OCC2CCCCO2)c1)c1ccc2c(c1)OC1CNCCC21` (stereo not drawn) [Example 553], the Ki in data set [1] (Table 1, class symbols) was less than 0.5 µM.
Still for that read-out and setting: for `O=S(=O)(c1ccc2c3c(oc2c1)CNCC3)C1CCCCC1` [Example 233] the value was more than 1 µM.
With `O=S(=O)(Nc1ccc(Cl)cc1)c1ccc2c(c1)C1CCNCC1O2` (stereo not drawn) [Example 836, N-(4-Chlorophenyl)-1,2,3,4,4a,9a-hexahydro[1]benzofuro[2,3-c]pyridine-6-sulfonamide], the Ki in data set [1] (Table 1, class symbols) was more than 1 µM.
As to `O=S(=O)(c1ccc2oc3c(c2c1)CCNC3)c1cc(Cl)ccc1Cl` [Example 266, 6-[(2,5-dichlorophenyl)sulfonyl]-1,2,3,4-tetrahydro[1]benzofuro[2,3-c]pyridine], the inhibition constant (Ki) in data set [1] (Table 1, class symbols) was less than 0.5 µM.
As to `CC12CCNCC1Oc1cc(S(=O)(=O)c3cc(F)cc(F)c3)ccc12` (stereo not drawn) [Example 359], the Ki in data set [1] (Table 1, class symbols) is less than 0.5 µM.
With `CC1(C)NCCc2c1oc1cc(S(=O)(=O)c3cc(Cl)cnc3O)ccc21` [Example 373], in data set [1] (Table 1, class symbols), the Ki was more than 1 µM.
Take `O=S(=O)(Oc1ccc2c(c1)C1CCNCC1O2)c1csc2ccccc12` (stereo not drawn) [Example 725]: the Ki in data set [1] (Table 1, class symbols) is less than 0.5 µM.
Turning to `COC(=O)CCCCOc1cccc(S(=O)(=O)c2ccc3c(c2)OC2CNCCC32)c1` (stereo not drawn) [Example 556], the inhibitory constant (Ki) in data set [1] (Table 1, class symbols) is less than 0.5 µM.
As for `O=S(=O)(c1cc(F)cc(OCc2ccccc2)c1)c1ccc2c(c1)OC1CNCCC21` (stereo not drawn) [Example 484], the inhibition constant Ki in data set [1] (Table 1, class symbols) was less than 0.5 µM.
For `O=S(=O)(c1ccccc1)c1ccc2c3c(oc2c1)[C@@]1(CCOC1)NCC3` (single isomer, unassigned) [Example 108], the inhibitory constant (Ki) in data set [1] (Table 1, class symbols) was less than 0.5 µM.
Take `O=S(=O)(c1cc(F)cc(F)c1)c1ccc2c(c1)OC1CNCCC21` (stereo not drawn) [Example 164]: the Ki in data set [1] (Table 1, class symbols) was less than 0.5 µM.
Same read-out and setting: to `COC(=O)c1cccc(S(=O)(=O)c2ccc3c4c(oc3c2)CNCC4)c1` [Example 219] belongs less than 0.5 µM.

(Values after patent publication US8765779B2, “Tricyclic derivatives and their pharmaceutical use and compositions” (Cephalon, Inc., priority 2009, dated 2014).)
